Measurements reported in patent US20210188843A1, “QUINOLINE COMPOUNDS AND THEIR PREPARATION AND USE AS ANTIMALARIAL AGENTS” (The United States of America,as represented by the …, priority 2018, published 2021).
≈ marks a conversion by molar mass, not a printed value. Like-named read-outs stand apart in the source and are kept apart here.

Tests used:
[1] = test system: Asexual parasites of P. falciparum strain 3D7; experiment: In vitro drug activity on asexual parasites (SYBR Green assay); type: cell-based; conditions: Plasmodium falciparum, P. falciparum 3D7 asexual stage, 72 h, read-out: Asexual EC50
Protocol: Cell culture. Asexual parasites of P. falciparum strain 3D7 were cultured as described previously [Trager W, et al., Journal of Parasitology 2005, 91: 484-486]. Stage III-V gametocytes were selected and enriched with 3-day treatment with 50 mM N-acetylglucosamine (NAG) and the following Percoll density gradient centrifugation after gametocyte production [Tanaka T Q, et al., Molecular and Biochemical Parasitology, 2011, 177: 160-163]. Gametocytes of HB3 and Dd2 strains were produced and then set up for assay in a similar process. HepG2 cells (ATCC, cat. no. 77400) were cultured in 175-cm^2 tissue culture flasks with 30 ml growth medium at 37° C. in a 5% CO2 humidified atmosphere. Growth medium was made with Dulbecco's Modified Eagle Medium with 10% fetal bovine serum (FBS). Growth medium was replaced every other day and cells were passed at 75% confluence.
Asexual parasites of P. falciparum strain 3D7 were cultured as described previously (Trager, W. et al., J. Parasitol. 2005, 91(3): 484-486). Drug activity on asexual stage parasites was tested using a SYBR Green assay as described previously (Eastman, R. T. et al., Antimicrob. Agents Chemother. 2013, 57(1): 425-435; Smilkstein, M. et al., Antimicrob. Agents Chemother. 2004, 48(5): 1803-1806). Briefly, parasites were diluted to 0.5% parasitemia in complete culture medium with 2% hematocrit and drugs diluted in DMSO (<0.5%) and were loaded into a 96-well plate (200 μl/well). No drug and RBC alone wells were included as positive and background controls, respectively, and each testing condition was examined in duplicated. After 72 h incubation under the standard culture condition and a freeze-thaw lysis step at −80° C. and room temperature, 100 μl/well of lysis buffer containing SYBR Green I was added to the parasite culture and incubated for 30 min at room temperature. The fluorescence of each well was measured at 520 nm following excitation at 490 nm using a FLUOstar Optima™ microplate reader (BMG Labtech).
Compounds were screened against gametocytes and asexual parasites as described in Examples 1 and 2.

[2] = Microsomal stability (rat); type: in vitro ADME; conditions: rat microsomes
Solubility pH 7.4 = type: physicochemical; conditions: aqueous buffer
[3] = Table 2, read-out: Microsomal Stability (rat) T1/2
[4] = Table 3, read-out: Microsomal Stability (rat) T1/2
[5] = Table 1, read-out: Microsomal Stability (rat) T1/2

Row | SMILES | EC50 ([1]; Table 3) [nM] | solubility (Solubility pH 7.4; Table 3) [µg/mL] | EC50 ([1]; Table 1) [nM] | also measured
1 | N#Cc1cccc(-n2c(=N)ccc3cnc4ccc(-c5ccc(Cl)cc5)cc4c32)c1 | – | – | – | EC50 ([1]; Table 2): 186 nM; half-life [2, 3]: > 30 min; solubility (Solubility pH 7.4; Table 2): 25.9 µg/mL (≈ 63.7 µM)
2 | N=c1ccc2cnc3ccc(-c4ccc(Cl)cc4)cc3c2n1-c1cccc(C(F)(F)F)c1 | – | – | – | EC50 ([1]; Table 2): 213 nM; half-life [2, 3]: > 30 min; solubility (Solubility pH 7.4; Table 2): 11.5 µg/mL (≈ 25.6 µM)
3 | Cc1ccc([S+](=O)([O-])/N=c2\ccc3cnc4ccc(-c5ccc(Cl)cc5)cc4c3n2-c2ccc(C(=O)NC3CC3)cc2)cc1 | – | – | – | EC50 ([1]; Table 2): 59 nM; half-life [2, 3]: 11.5 min; solubility (Solubility pH 7.4; Table 2): < 1 µg/mL
4 | N=c1ccc2cnc3ccc(-c4ccc(Cl)cc4)cc3c2n1-c1ccc(C(=O)NC2CC2)cc1 | – | – | – | EC50 ([1]; Table 2): 85.7 nM; half-life [2, 3]: > 30 min; solubility (Solubility pH 7.4; Table 2): > 69 µg/mL
5 | Cn1/c(=N\c2cncnc2)n(-c2cncnc2)c2c3cc(-c4cccc(F)c4)ccc3ncc21 | 193 | – | – | –
6 | Cn1c(=N)n(-c2nccc(C(F)(F)F)n2)c2c3cc(-c4ccc(Cl)cc4)ccc3ncc21 | 450 | < 1 | – | –
7 | Cn1c(=N)n(-c2nccc(C(F)(F)F)n2)c2c3cc(-c4cccc(F)c4)ccc3ncc21 | 202 | < 1 | – | –
8 | Cc1ccc(C#N)cc1-n1c(=N)n(C)c2cnc3ccc(-c4ccc(C(N)=O)s4)cc3c21 [Compound 1, 5-(1-(5-cyano-2-methylphenyl)-2-imino-3-methyl-2,3-dihydro-1H-imidazo[4,5-c]quinolin-8-yl)thiophene-2-carboxamide] | – | – | 8.36 | half-life [2, 5]: > 30 min; solubility (Solubility pH 7.4; Table 1): 14.2 µg/mL (≈ 32.4 µM)
9 | Cn1c(=N)n(-c2cccc(CC#N)c2)c2c3cc(-c4ccc(Cl)cc4)ccc3ncc21 [Compound 73, 2-(3-(8-(4-chlorophenyl)-2-imino-3-methyl-2,3-dihydro-1H-imidazo[4,5-c]quinolin-1-yl)phenyl)acetonitrile] | – | – | 118 | –
10 | Cn1c(=N)n(-c2ccnc(C#N)c2)c2c3cc(-c4ccc(Cl)cc4)ccc3ncc21 [Compound 90, 4-(8-(4-chlorophenyl)-2-imino-3-methyl-2,3-dihydro-1H-imidazo[4,5-c]quinolin-1-yl)picolinonitrile] | – | – | 224 | –
11 | Cc1cc(N2CCCC2)c(C#N)cc1-n1c(=N)n(C)c2cnc3ccc(-c4ccc(Cl)cc4)cc3c21 [Compound 111, 5-(8-(4-chlorophenyl)-2-imino-3-methyl-2,3-dihydro-1H-imidazo[4,5-c]quinolin-1-yl)-4-methyl-2-(pyrrolidin-1-yl)benzonitrile] | – | – | 801 | –
12 | Cc1cc(N2CCOC(C)C2)c(C#N)cc1-n1c(=N)n(C)c2cnc3ccc(-c4ccc(Cl)cc4)cc3c21 (stereo not shown) [Compound 119, 5-(8-(4-chlorophenyl)-2-imino-3-methyl-2,3-dihydro-1H-imidazo[4,5-c]quinolin-1-yl)-4-methyl-2-(2-methylmorpholino)benzonitrile] | – | – | 352 | –
13 | Cc1cc(N2C[C@@H]3CCCN[C@@H]3C2)c(C#N)cc1-n1c(=N)n(C)c2cnc3ccc(-c4ccc(Cl)cc4)cc3c21 [Compound 120, 5-(8-(4-chlorophenyl)-2-imino-3-methyl-2,3-dihydro-1H-imidazo[4,5-c]quinolin-1-yl)-4-methyl-2-((4aS,7aS)-octahydro-6H-pyrrolo[3,4-b]pyridin-6-yl)benzonitrile] | – | – | 1470 | –
14 | CC(=O)N1CCC(N2CCC(n3c(=N)n(C)c4cnc5ccc(-c6ccc(Cl)cc6)cc5c43)CC2)CC1 [Compound 127, 1-(4-(8-(4-chlorophenyl)-2-imino-3-methyl-2,3-dihydro-1H-imidazo[4,5-c]quinolin-1-yl)-[1,4′-bipiperidin]-1′-yl)ethan-1-one] | – | – | 1500 | –
15 | CCC(=O)N1CCC(N2CCC(n3c(=N)n(C)c4cnc5ccc(-c6ccc(Cl)cc6)cc5c43)CC2)CC1 [Compound 128, 1-(4-(8-(4-chlorophenyl)-2-imino-3-methyl-2,3-dihydro-1H-imidazo[4,5-c]quinolin-1-yl)-[1,4′-bipiperidin]-1′-yl)propan-1-one] | – | – | 627 | –
16 | Cc1cc(N2CCC(NS(C)(=O)=O)CC2)c(C#N)cc1-n1c(=N)n(C)c2cnc3ccc(-c4ccc(Cl)cc4)cc3c21 [Compound 131, N-(1-(4-(8-(4-chlorophenyl)-2-imino-3-methyl-2,3-dihydro-H-imidazo[4,5-c]quinolin-1-yl)-2-cyano-5-methylphenyl)piperidin-4-yl)methanesulfonamide] | – | – | 16.3 | –
17 | Cc1cc(N2CCNC(=O)C2)c(C#N)cc1-n1c(=N)n(C)c2cnc3ccc(-c4ccc(Cl)cc4)cc3c21 [Compound 133, 5-(8-(4-chlorophenyl)-2-imino-3-methyl-2,3-dihydro-1H-imidazo[4,5-c]quinolin-1-yl)-4-methyl-2-(3-oxopiperazin-1-yl)benzonitrile] | – | – | 6.26 | –
18 | COC(=O)/N=c1\n(C)c2cnc3ccc(-c4cccc(F)c4)cc3c2n1-c1cc(C#N)c(N2CCOCC2)cc1C [Compound 148, Methyl (E)-(1-(5-cyano-2-methyl-4-morpholinophenyl)-8-(3-fluorophenyl)-3-methyl-1,3-dihydro-2H-imidazo[4,5-c]quinolin-2-ylidene)carbamate] | – | – | 236 | –

Further lines, with some results ahead:

Row | EC50 ([1]; Table 3) [nM] | solubility (Solubility pH 7.4; Table 3) [µg/mL] | EC50 ([1]; Table 1) [nM] | SMILES | also measured
19 | 164 | > 38 | – | Cc1ncncc1-n1c(=N)n(C)c2cnc3ccc(-c4ccc(N)nc4)cc3c21 | half-life [2, 4]: > 30 min
20 | 570 | 36.3 (≈ 102 µM) | – | Cn1nccc1-c1ccc2ncc3c(c2c1)n(-c1cncnc1)c(=N)n3C | –
21 | 50.8 | 1.3 (≈ 3.02 µM) | – | COc1cc(-c2ccc3ncc4c(c3c2)n(-c2cncnc2C)c(=N)n4C)ccc1Cl | –
22 | 229 | > 61 | – | COc1ccc(-c2ccc3ncc4c(c3c2)n(-c2cncnc2C)c(=N)n4C)cc1F | –
23 | 52.5 | < 1 | – | COc1cc(-c2ccc3ncc4c(c3c2)n(-c2cncnc2C)c(=N)n4C)ccc1F | –
24 | 160 | 10.6 (≈ 22.6 µM) | – | Cc1ncncc1-n1c(=N)n(C)c2cnc3ccc(-c4ccc(Cl)c(C(F)(F)F)c4)cc3c21 | half-life [2, 4]: > 30 min
25 | 136 | – | – | Cn1c(=N)n(-c2cncnc2)c2c3cc(-c4ccc(Cl)c(C#N)c4)ccc3ncc21 | –
26 | 158 | 16 (≈ 33 µM) | – | Cc1ncncc1-n1c(=N)n(C)c2cnc3ccc(-c4ccc(Cl)c(OC(F)(F)F)c4)cc3c21 | half-life [2, 4]: > 30 min
27 | 315 | < 1 | – | Cn1c(=N)n(-c2cncnc2)c2c3cc(-c4ccc(Cl)c(OC(F)(F)F)c4)ccc3ncc21 | half-life [2, 4]: > 30 min
28 | 25.8 | – | – | COc1ccc(-c2ccc3ncc4c(c3c2)n(-c2cncnc2C)c(=N)n4C)cc1OC | half-life [2, 4]: > 30 min
29 | 140 | 3.4 (≈ 8.46 µM) | – | Cn1c(=N)n(-c2ccnc(N)n2)c2c3cc(-c4ccc(Cl)cc4)ccc3ncc21 | half-life [2, 4]: > 30 min
30 | 523 | 20.9 (≈ 54.2 µM) | – | Cn1c(=N)n(-c2ccnc(N)n2)c2c3cc(-c4cccc(F)c4)ccc3ncc21 | half-life [2, 4]: > 30 min
31 | 2110 | < 1 | – | COc1ccnc(-n2c(=N)n(C)c3cnc4ccc(-c5ccc(Cl)cc5)cc4c32)n1 | –
32 | 43100 | < 1 | – | Cn1c(=N)n(-c2nccc(O)n2)c2c3cc(-c4ccc(Cl)cc4)ccc3ncc21 | half-life [2, 4]: > 30 min
33 | 1310 | 6.5 (≈ 16.2 µM) | – | COc1ccnc(-n2c(=N)n(C)c3cnc4ccc(-c5cccc(F)c5)cc4c32)n1 | –
34 | 18800 | < 1 | – | Cn1c(=N)n(-c2nccc(O)n2)c2c3cc(-c4cccc(F)c4)ccc3ncc21 | half-life [2, 4]: > 30 min
35 | 1860 | < 1 | – | Cn1c(=N)n(-c2nccc(N)n2)c2c3cc(-c4ccc(Cl)cc4)ccc3ncc21 | half-life [2, 4]: > 30 min
36 | 1570 | 5.2 (≈ 13.5 µM) | – | Cn1c(=N)n(-c2nccc(N)n2)c2c3cc(-c4cccc(F)c4)ccc3ncc21 | half-life [2, 4]: > 30 min
37 | – | – | 5.31 | Cc1ccc(C#N)cc1-n1c(=N)n(C)c2cnc3ccc(-c4ccc(N)nc4)cc3c21 [Compound 2, 3-(8-(6-aminopyridin-3-yl)-2-imino-3-methyl-2,3-dihydro-H-imidazo[4,5-c]quinolin-1-yl)-4-methylbenzonitrile] | half-life [2, 5]: > 30 min; solubility (Solubility pH 7.4; Table 1): > 60 µg/mL
38 | – | – | 74.3 | Cc1cc(F)c(C#N)cc1-n1c(=N)n(C)c2cnc3ccc(-c4ccc(Cl)cc4)cc3c21 [Compound 134, 5-(8-(4-chlorophenyl)-2-imino-3-methyl-2,3-dihydro-1H-imidazo[4,5-c]quinolin-1-yl)-2-fluoro-4-methylbenzonitrile] | –
